Results published in patent US20210386071A1, “ANTI-NON-ENVELOPED VIRUS AGENT AND COMPOSITION CONTAINING SAME, AND ANTI-VIRAL PRODUCT AND METHOD FOR PRODUCING SAME” (TOAGOSEI CO., LTD., priority 2018, published 2021).

Test system: feline calicivirus
Test: Antiviral activity value (Mv) by methods of JIS L 1922, plaque count measurement of virus infectivity
Description: The performance of each of the above antiviral agents was evaluated by applying methods shown in JIS L 1922 (antiviral property test method of fiber product), and an antiviral activity value (Mv) obtained was used to determine the antiviral property. […] Purified water was added to the antiviral agent so that its concentration was 0.1% by mass. Next, 100 μL of feline calicivirus solution having a virus infectivity of 1 to 5×10^7 PFU/mL was added to 900 μL of the above liquid, and a mixed liquid was allowed to stand at a temperature of 25° C. for 2 hours. Thereafter, the mixed liquid was recovered, and the recovered liquid was subjected to a plaque count measurement method to measure the virus infectivity. The virus infectivity was measured in the same manner as the test sample except that 900 μL of phosphate buffered saline (PBS) was used as a control sample instead of the test sample. The performance of the antiviral agent was evaluated by the antiviral activity value (Mv) obtained by the following formula. Mv=Log (virus infectivity of control sample)−Log (virus infectivity of test sample)

## [Ca+2].[OH-].[OH-] [V3, calcium hydroxide]
  Antiviral activity value Mv: 4.2
  antiviral properties (assessment in words): excellent antiviral properties
